From patent publication US20260022116A1, “IMIDAZOPYRIDINE COMPOUNDS, PREPARATION THEREOF AND THERAPEUTIC USES THEREOF” (SANOFI, priority 2022, published 2026)

Assays:
[1] = molecular target: T1, ERK5 (Homo sapiens, UniProt Q13164); assay: cell-based
Target sequence in this assay (Q13164 whole entry): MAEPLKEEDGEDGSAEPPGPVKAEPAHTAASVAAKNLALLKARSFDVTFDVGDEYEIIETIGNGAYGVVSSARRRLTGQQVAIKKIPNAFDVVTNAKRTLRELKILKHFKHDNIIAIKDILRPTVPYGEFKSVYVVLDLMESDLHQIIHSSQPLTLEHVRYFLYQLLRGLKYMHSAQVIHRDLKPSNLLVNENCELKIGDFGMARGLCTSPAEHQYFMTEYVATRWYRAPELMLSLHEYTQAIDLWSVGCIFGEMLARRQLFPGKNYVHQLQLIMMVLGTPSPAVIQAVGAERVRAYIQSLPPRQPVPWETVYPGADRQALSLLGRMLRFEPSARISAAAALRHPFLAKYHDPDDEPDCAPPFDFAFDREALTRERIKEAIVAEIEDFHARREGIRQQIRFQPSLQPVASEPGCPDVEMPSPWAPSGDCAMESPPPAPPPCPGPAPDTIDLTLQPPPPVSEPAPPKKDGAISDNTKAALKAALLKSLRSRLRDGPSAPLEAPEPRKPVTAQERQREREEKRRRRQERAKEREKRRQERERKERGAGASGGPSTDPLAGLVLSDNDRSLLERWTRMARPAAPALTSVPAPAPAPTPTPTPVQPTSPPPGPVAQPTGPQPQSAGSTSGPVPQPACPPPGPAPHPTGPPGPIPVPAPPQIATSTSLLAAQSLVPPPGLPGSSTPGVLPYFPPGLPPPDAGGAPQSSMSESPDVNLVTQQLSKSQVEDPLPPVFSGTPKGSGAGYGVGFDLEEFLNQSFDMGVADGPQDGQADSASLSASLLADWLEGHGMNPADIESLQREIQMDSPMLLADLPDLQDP
Description: (§1) Two assays were performed to assess the ERK5 inhibitory activity of compounds of the Examples, a cell-based assay and a cell-free biochemical assay.
The renal cancer cell line SN12C was transduced by a lentivirus pGreenFire1 MEF2 EF1 Neo (ref TR030VA-N) from SBI using standard infection protocol. pGreenFire1 MEF2 EF1 Neo allows the expression of luciferase gene under the control of minimal promoter with MEF2 transcriptional response elements. Cells harboring the reporter construct were selected by geneticin treatment. The selected cells were then transposed by a piggyback based plasmid pCM4007 allowing the expression of constitutively activated MEK5DD under control of TREG3 promoter, a doxycycline regulated promoter. Transposed cells were selected by puromycin treatment. Upon doxycycline treatment (1 μg/ml) MEK5DD was expressed. MEK5DD activates ERK5 that phosphorylates MEF2C protein. Activated MEF2C protein can bind to its transcriptional response elements. Then the luciferase is expressed. In a 96-well plate (96F nuncleon ref137101 thermofisher), 50,000 cells were inoculated in 142.5 μl of RPMI medium containing 10% fetal calf serum, 1% glutamine, and 1 μg/ml doxycycline. […] The luciferase activity was measured using the Kit Bright Glo Luminescent Cell Assay Cat E2610 (Promega) according to the manufacturer's protocol. Luminescence was determined using 0.2 second reading/well using a Tecan SPARK. IC50 values were calculated using XLFIT5 for Microsoft Excel using method 205.

[2] = molecular target: T1, ERK5; assay: biochemical
Target sequence in this assay (Q13164 55-347 limits assumed): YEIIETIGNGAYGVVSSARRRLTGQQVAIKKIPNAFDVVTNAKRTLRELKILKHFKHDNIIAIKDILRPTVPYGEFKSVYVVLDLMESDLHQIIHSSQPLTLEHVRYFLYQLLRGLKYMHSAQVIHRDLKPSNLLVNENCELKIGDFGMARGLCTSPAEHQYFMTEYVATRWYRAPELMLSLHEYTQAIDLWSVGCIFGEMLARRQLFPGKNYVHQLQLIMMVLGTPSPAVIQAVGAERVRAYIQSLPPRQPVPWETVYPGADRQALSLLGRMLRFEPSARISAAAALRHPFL
Description: as §1
An assay was performed to measure the capacity of each compound to inhibit ERK5 enzymatic activity. Compound potency was evaluated by Time-Resolved Forster Resonance Energy Transfer (FRET system). […] A mixture of 1 mM ATP and 1 μM biotinylated synthetic peptide was added (Biosyntan GmbH). This synthetic peptide represents amino acids 30-52 of Eukaryotic translation initiation factor 4E-binding protein 1 (see, e.g., the sequence under accession No. NP_004086.1) biotinylated at the N-terminus.

| IC50 [1] | IC50 [2] | Compound |
| --- | --- | --- |
| 203 nM | 207 nM | CC12CC(N)(C1)C(c1nc3c(C4CCN(C(=O)c5ccc(OC(F)(F)F)cc5N)CC4)ccnc3[nH]1)O2 (single isomer, unassigned) [Example 254, [4-[2-[4-amino-1-methyl-2-oxabicyclo[2.1.1]hexan-3-yl]-3H-imidazo[4,5-b]pyridin-7-yl]-1-piperidyl]-[2-amino-4-(trifluoromethoxy)phenyl]methanone] |
| 97 nM | 95 nM | COC12CC(c3nc4c(C5CCN(C(=O)c6ccc(S(F)(F)(F)(F)F)cc6)CC5)ccnc4[nH]3)(C1)C2 [Example 302, [4-[2-(3-methoxy-1-bicyclo[1.1.1]pentanyl)-3H-imidazo[4,5-b]pyridin-7-yl]-1-piperidyl]-[4-(pentafluoro-λ^6-sulfanyl)phenyl]methanone] |
| > 10000 nM | 98 nM | O=C(c1ccc(C(F)(F)F)[nH]c1=O)N1CCC(c2ccnc3[nH]c(C4CCOCC4)nc23)CC1 [Example 264, 3-[4-(2-tetrahydropyran-4-yl-3H-imidazo[4,5-b]pyridin-7-yl)piperidine-1-carbonyl]-6-(trifluoromethyl)-1H-pyridin-2-one] |
| 284 nM | 273 nM | O=C(c1ccc(S(F)(F)(F)(F)F)cc1)N1CCC(c2ccnc3[nH]c(C4CCOC4)nc23)CC1 (single isomer, unassigned) [Example 301, [4-(pentafluoro-λ^6-sulfanyl)phenyl]-[4-[2-[tetrahydrofuran-3-yl]-3H-imidazo[4,5-b]pyridin-7-yl]-1-piperidyl]methanone] |
|  | 244 nM | O=C(c1ccc(OC(F)(F)F)cc1)N1CCC(c2c(F)cnc3[nH]c(C4CCC5(COC5)N(C(=O)O)C4)nc23)CC1 (racemic) [Example 461, (rac)-7-[6-fluoro-7-[1-[4-(trifluoromethoxy)benzoyl]-4-piperidyl]-3H-imidazo[4,5-b]pyridin-2-yl]-2-oxa-5-azaspiro[3.5]nonane-5-carboxylic acid] |
| > 10000 nM | 25200 nM | O=C(C1CC1c1cccc(O)c1)N1CCC(c2ccnc3[nH]c(C4CCOCC4)nc23)CC1 (centres unmarked) [Example 86, [2-(3-hydroxyphenyl)cyclopropyl]-[4-(2-tetrahydropyran-4-yl-3H-imidazo[4,5-b]pyridin-7-yl)-1-piperidyl]methanone] |
| 38 to 88 nM | 4500 nM | O=C(c1ccc(OC(F)(F)F)cc1)N1CCC(c2c(F)cnc3[nH]c(C45CC(C(F)(F)F)(C4)C5)nc23)CC1 [Example 436, [4-[6-fluoro-2-[3-(trifluoromethyl)-1-bicyclo[1.1.1]pentanyl]-3H-imidazo[4,5-b]pyridin-7-yl]-1-piperidyl]-[4-(trifluoromethoxy)phenyl]methanone] |
| 13 nM | 13 nM | COC12CC(c3nc4c(C5CCN(C(=O)c6ccc(OC(F)(F)F)cc6N)CC5)ccnc4[nH]3)(C1)C2 [Example 150, [2-amino-4-(trifluoromethoxy)phenyl]-[4-[2-(3-methoxy-1-bicyclo[1.1.1]pentanyl)-3H-imidazo[4,5-b]pyridin-7-yl]-1-piperidyl]methanone] |
| > 10000 nM | 14900 nM | O=C(c1cnn(Cc2ccccc2Cl)c1)N1CCC(c2ccnc3[nH]c(C4CCOCC4)nc23)CC1 [Example 112, [1-[(2-chlorophenyl)methyl]pyrazol-4-yl]-[4-(2-tetrahydropyran-4-yl-3H-imidazo[4,5-b]pyridin-7-yl)-1-piperidyl]methanone] |
|  | 535 nM | O=C(c1ccc(S(F)(F)(F)(F)F)cc1)N1CCC(c2c(F)cnc3[nH]c(C4CCN(C5CC5)CC4)nc23)CC1 [Example 431, [4-[2-(1-cyclopropyl-4-piperidyl)-6-fluoro-3H-imidazo[4,5-b]pyridin-7-yl]-1-piperidyl]-[4-(pentafluoro-λ^6-sulfanyl)phenyl]methanone] |
| > 10000 nM | 18000 nM | O=C(C1CCN(c2ccccc2Cl)C1)N1CCC(c2ccnc3[nH]c(C4CCOCC4)nc23)CC1 (centres unmarked) [Example 118, [1-(2-chlorophenyl)pyrrolidin-3-yl]-[4-(2-tetrahydropyran-4-yl-3H-imidazo[4,5-b]pyridin-7-yl)-1-piperidyl]methanone] |
| > 10000 nM | 25700 nM | O=C1Nc2ccccc2OC1CC(=O)N1CCC(c2ccnc3[nH]c(C4CCOCC4)nc23)CC1 (centres unmarked) [Example 106, 2-[2-oxo-2-[4-(2-tetrahydropyran-4-yl-3H-imidazo[4,5-b]pyridin-7-yl)-1-piperidyl]ethyl]-4H-1,4-benzoxazin-3-one] |
|  | 280 nM | O=C(c1ccc(S(F)(F)(F)(F)F)cc1)N1CCC(c2c(F)cnc3[nH]c(N4CCOCC4)nc23)CC1 [Example 449] |
| 7890 nM |  | O=C(c1cnn2c1NCCC2C(F)(F)F)N1CCC(c2ccnc3[nH]c(C4CCOCC4)nc23)CC1 (centres unmarked) [Example 79, [4-(2-tetrahydropyran-4-yl-3H-imidazo[4,5-b]pyridin-7-yl)-1-piperidyl]-[7-(trifluoromethyl)-4,5,6,7-tetrahydropyrazolo[1,5-a]pyrimidin-3-yl]methanone] |
| 3600 nM |  | O=C(c1n[nH]c2ccccc12)N1CCC(c2ccnc3[nH]c(C4CCOCC4)nc23)CC1 [Example 78, 1H-indazol-3-yl-[4-(2-tetrahydropyran-4-yl-3H-imidazo[4,5-b]pyridin-7-yl)-1-piperidyl]methanone] |
|  | 487 nM | O=C(c1ccc(S(F)(F)(F)(F)F)cc1)N1CCC(c2c(F)cnc3[nH]c([C@H]4C[C@@H](O)C4)nc23)CC1 [Example 446, (cis)-[4-[6-fluoro-2-(3-hydroxycyclobutyl)-3H-imidazo[4,5-b]pyridin-7-yl]-1-piperidyl]-[4-(pentafluoro-λ^6-sulfanyl)phenyl]methanone] |
|  | 6460 nM | O=C(c1ccc(S(F)(F)(F)(F)F)cc1)N1CCC(c2c(F)cnc3[nH]c(C4CN(C(=O)O)C5COCC5O4)nc23)CC1 (racemic) [Example 455, (rac)-2-[6-fluoro-7-[1-[4-(pentafluoro-λ^6-sulfanyl)benzoyl]-4-piperidyl]-3H-imidazo[4,5-b]pyridin-2-yl]-2,3,4a,5,7,7a-hexahydrofuro[3,4-b][1,4]oxazine-4-carboxylic acid] |
|  | 10500 nM | O=C(c1ccc(S(F)(F)(F)(F)F)cc1)N1CCC(c2c(F)cnc3[nH]c([C@H]4CC[C@@](O)(C(F)(F)F)CC4)nc23)CC1 [Example 450, (trans)-[4-[6-fluoro-2-[4-hydroxy-4-(trifluoromethyl)cyclohexyl]-3H-imidazo[4,5-b]pyridin-7-yl]-1-piperidyl]-[4-(pentafluoro-λ^6-sulfanyl)phenyl]methanone] |
| 7940 nM |  | Cc1cc2ncc(C(=O)N3CCC(c4ccnc5[nH]c(C6CCOCC6)nc45)CC3)c(N)n2n1 [Example 109, (7-amino-2-methyl-pyrazolo[1,5-a]pyrimidin-6-yl)-[4-(2-tetrahydropyran-4-yl-3H-imidazo[4,5-b]pyridin-7-yl)-1-piperidyl]methanone] |
| > 10000 nM |  | O=C(c1ccc(OC(F)(F)F)cc1)N1CCC(c2ccnc3[nH]c(-c4csc(-c5cc(Cl)ccc5O)n4)nc23)CC1 [Example 135, [4-[2-[2-(5-chloro-2-hydroxy-phenyl)thiazol-4-yl]-3H-imidazo[4,5-b]pyridin-7-yl]-1-piperidyl]-[4-(trifluoromethoxy)phenyl]methanone] |
| > 10000 nM |  | O=C(C1CC12C(=O)Nc1ccccc12)N1CCC(c2ccnc3[nH]c(C4CCOCC4)nc23)CC1 (centres unmarked) [Example 117, 2-[4-(2-tetrahydropyran-4-yl-3H-imidazo[4,5-b]pyridin-7-yl)piperidine-1-carbonyl]spiro[cyclopropane-1,3′-indoline]-2′-one] |
| > 10000 nM |  | O=C1CC(C(=O)N2CCC(c3ccnc4[nH]c(C5CCOCC5)nc34)CC2)CN1Cc1ccccc1Cl (centres unmarked) [Example 110, 1-[(2-chlorophenyl)methyl]-4-[4-(2-tetrahydropyran-4-yl-3H-imidazo[4,5-b]pyridin-7-yl)piperidine-1-carbonyl]pyrrolidin-2-one] |
| 979 nM |  | CC(C)(C)OC(=O)Nc1cc(OC(F)(F)F)ccc1C(=O)N1CCC(c2ccnc3[nH]c(C4CCOCC4)nc23)CC1 [Example 190, tert-butyl N-[2-[4-(2-tetrahydropyran-4-yl-3H-imidazo[4,5-b]pyridin-7-yl)piperidine-1-carbonyl]-5-(trifluoromethoxy)phenyl]carbamate] |
|  | 385 nM | Nc1cc(S(F)(F)(F)(F)F)ccc1C(=O)N1CCC(c2c(F)cnc3[nH]c(C4CCCO4)nc23)CC1 (racemic) [Example 383, (rac)-[2-amino-4-(pentafluoro-λ^6-sulfanyl)phenyl]-[4-(6-fluoro-2-tetrahydrofuran-2-yl-3H-imidazo[4,5-b]pyridin-7-yl)-1-piperidyl]methanone] |
| > 10000 nM |  | O=S(=O)(c1ccc(OC(F)(F)F)cc1)N1CCC(c2ccnc3[nH]c(C4CCOCC4)nc23)CC1 [Example 165, 2-tetrahydropyran-4-yl-7-[1-[4-(trifluoromethoxy)phenyl]sulfonyl-4-piperidyl]-3H-imidazo[4,5-b]pyridine] |
| > 10000 nM |  | O=C(C1CC(=O)N(c2ccc(F)c(F)c2)C1)N1CCC(c2ccnc3[nH]c(C4CCOCC4)nc23)CC1 (centres unmarked) [Example 107, 1-(3,4-difluorophenyl)-4-[4-(2-tetrahydropyran-4-yl-3H-imidazo[4,5-b]pyridin-7-yl)piperidine-1-carbonyl]pyrrolidin-2-one] |
| > 10000 nM |  | O=C(c1cccc(N2CCCS2(=O)=O)c1)N1CCC(c2ccnc3[nH]c(C4CCOCC4)nc23)CC1 [Example 85, [3-(1,1-dioxo-1,2-thiazolidin-2-yl)phenyl]-[4-(2-tetrahydropyran-4-yl-3H-imidazo[4,5-b]pyridin-7-yl)-1-piperidyl]methanone] |
|  | 175 nM | O=C(c1ccc(S(F)(F)(F)(F)F)cc1)N1CCC(c2c(F)cnc3[nH]c([C@H]4C[C@H](O)C4)nc23)CC1 [Example 448, (trans)-[4-[6-fluoro-2-(3-hydroxycyclobutyl)-3H-imidazo[4,5-b]pyridin-7-yl]-1-piperidyl]-[4-(pentafluoro-λ^6-sulfanyl)phenyl]methanone] |
